This is an account of results in patent US20250136576A1, “Heterocyclic Compounds and Uses Thereof” (ACEA Therapeutics, Inc., priority 2021, published 2025).

One assay deals with H1975 cells. Nature of the assay: Cell proliferation and growth inhibition assay (CCK-8) in H1975. In kind it is cell-based. Particulars: Homo sapiens, NCI-H1975, 72 h, treated with test compounds for 72 hrs, CCK-8 viability, read-out: EGFR IC50 in H1975. The method, then:
MV-4-11 and H1975 cells were obtained from the American Type Culture Collection and KM12-luc cells were obtained from JCRB Cell Bank. All cell lines were maintained at 37° C. with 5% C02, in media supplemented with 10% fetal bovine serum and penicillin (100 units/mL) and streptomycin (100 μg/mL). MV-4-11 cells were maintained in Iscove's Modified Dubecco's Medium, H1975 cells were cultured with RPMI 1640 media, and KM12-luc cells were maintained in Dulbecco's Modification of Eagle's Medium. CCK-8 reagent was obtained from Yeasen.
Cell proliferation was assessed by CCK-8 assay (Yeasen) per the manufacturer's instructions. The MV-4-11 (AML), H1975, and KM12-luc cells were seeded at 30,000, 3,000 and 2,500 cells per well onto 96-well plates, and after a 24 h incubation, the cells were treated with test compounds for 72 hrs. Cell viability was assayed by incubating the cells with CCK-8 reagent for 1-4 hrs. Absorbance was measured at OD450 using the Beckman DTX880. The data was calculated using GraphPad Prism version 6.01. The IC50 values were fitted using a non-linear regression model with a sigmoidal dose response.
Broadly, the IC50 is the concentration that inhibits the measured activity by half. As to `CN(C)CCN(C)c1ccc(Nc2ncc(F)c(-c3c[nH]c4c(F)cccc34)n2)cc1N` [Compound 520, N^1-(2-(dimethylamino)ethyl)-N^4-(5-fluoro-4-(7-fluoro-1H-indol-3-yl)pyrimidin-2-yl)-N-methylbenzene-1,2,4-triamine], the concentration for half-maximal inhibition (IC50) was found to be 1180 nM.
On the same count and under the same terms, with `Cc1cccc2c(-c3nc(Nc4ccc(N(C)CCN(C)C)c(N)c4)ncc3F)c[nH]c12` [Compound 524, N^1-(2-(dimethylamino)ethyl)-N^4-(5-fluoro-4-(7-methyl-1H-indol-3-yl)pyrimidin-2-yl)-N^1-methylbenzene-1,2,4-triamine] the figure was 425 nM; with `CCC(=O)Nc1cc(Nc2ncc(OC)c(-c3c[nH]c4c(C)cccc34)n2)ccc1N(C)CCN(C)C` [Compound 534, N-(2-((2-(dimethylamino)ethyl)(methyl)amino)-5-((5-methoxy-4-(7-methyl-1H-indol-3-yl)pyrimidin-2-yl)amino)phenyl)propionamide], 1300 nM.
On the same count and under the same terms, then `COc1cnc(Nc2ccc(N(C)CCN(C)C)c(N)c2)nc1-c1c[nH]c2c(OC)cccc12` [Compound 536, N^1-(2-(dimethylamino)ethyl)-N^1-methyl-N^4-(5-methoxy-4-(7-methoxy-1H-indol-3-yl)pyrimidin-2-yl)benzene-1,2,4-triamine], with 837 nM; and `CCC(=O)Nc1cc(Nc2nc(-c3c[nH]c4c(OC)cccc34)c3cc[nH]c3n2)ccc1N(C)CCN(C)C` [Compound 518, N-(2-((2-(dimethylamino)ethyl)(methyl)amino)-5-((4-(7-methoxy-1H-indol-3-yl)-7H-pyrrolo[2,3-d]pyrimidin-2-yl)amino)phenyl)propionamide], with 406 nM; and `CC(=O)Nc1cc(Nc2nccc(-c3c[nH]c4c(C)cccc34)n2)ccc1N(C)CCN(C)C` [Compound 551, N-(2-((2-(dimethylamino)ethyl)(methyl)amino)-5-((4-(7-methyl-1H-indol-3-yl)pyrimidin-2-yl)amino)phenyl)acetamide], with 1540 nM.
Same read-out and setting: then `COc1cnc(Nc2ccc(N(C)CCN(C)C)c(NC(C)=O)c2)nc1-c1c[nH]c2c(C)cccc12` [Compound 533, N-(2-((2-(dimethylamino)ethyl)(methyl)amino)-5-((5-methoxy-4-(7-methyl-1H-indol-3-yl)pyrimidin-2-yl)amino)phenyl)acetamide], with 1110 nM; and `CCC(=O)Nc1cc(Nc2nccc(-c3c[nH]c4c(OC)cccc34)n2)ccc1N(C)CCN(C)C` [Compound 555, N-(2-((2-(dimethylamino)ethyl)(methyl)amino)-5-((4-(7-methoxy-1H-indol-3-yl)pyrimidin-2-yl)amino)phenyl)propionamide], with 2250 nM; and `COc1cccc2c(-c3ccnc(Nc4ccc(N(C)CCN(C)C)c(N)c4)n3)c[nH]c12` [Compound 553, N^1-(2-(dimethylamino)ethyl)-N^4-(4-(7-methoxy-1H-indol-3-yl)pyrimidin-2-yl)-N^1-methylbenzene-1,2,4-triamine], with 1140 nM.
On to `CC(=O)Nc1cc(Nc2ncc(F)c(-c3c[nH]c4c(C)cccc34)n2)ccc1N(C)CCN(C)C` [Compound 525, N-(2-((2-(dimethylamino)ethyl)(methyl)amino)-5-((5-fluoro-4-(7-methyl-1H-indol-3-yl)pyrimidin-2-yl)amino)phenyl)acetamide], for which the IC50 was determined as 406 nM.
Still for that read-out and setting: with `COc1cccc2c(-c3nc(Nc4ccc(N(C)CCN(C)C)c(NC(C)=O)c4)ncc3F)c[nH]c12` [Compound 529, N-(2-((2-(dimethylamino)ethyl)(methyl)amino)-5-((5-fluoro-4-(7-methoxy-1H-indol-3-yl)pyrimidin-2-yl)amino)phenyl)acetamide] the figure was 958 nM.

For the next assay, the system named is KM12-luc cells. Description: Cell proliferation and growth inhibition assay (CCK-8) in KM12-luc. In kind it is cell-based. Particulars: KM12-Luc, 72 h, KM12-luc cells, treated with test compounds for 72 hrs, CCK-8 viability; read-out: NTRK IC50 in KM12-luc. Summed up:
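IC50 values were fitted by sigmoidal dose-response non-linear regression of CCK-8 OD450 absorbance after 1-4 hrs with reagent. Culture media were IMDM for MV-4-11, RPMI 1640 for H1975 and DMEM for KM12-luc, each with 10% FBS at 37 °C, 5% CO2.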
For the compound `CC(=O)Nc1cc(Nc2ncc(Cl)c(-c3cn(C)c4ccccc34)n2)ccc1NC(=O)CCN(C)C` [Compound 408, N-(2-acetamido-4-((5-chloro-4-(1-methyl-1H-indol-3-yl)pyrimidin-2-yl)amino)phenyl)-3-(dimethylamino)propanamide], the IC50 is 19.7 nM.
In the case of `CCN(CCN(C)C)c1ccc(Nc2ncc(C(F)(F)F)c(-c3c[nH]c4c(F)cccc34)n2)cc1NC(C)=O` [Compound 336, N-(2-((2-(dimethylamino)ethyl)(ethyl)amino)-5-((4-(7-fluoro-1H-indol-3-yl)-5-(trifluoromethyl)pyrimidin-2-yl)amino)phenyl)acetamide], the IC50 stood at 64.8 nM.
On the same count and under the same terms, with `CC(=O)Nc1cc(Nc2ncc(Cl)c(-c3cn(C)c4c(F)cccc34)n2)ccc1N1CC[C@H](N(C)C)C1` [Compound S-415, (S)—N-(5-((5-chloro-4-(7-fluoro-1-methyl-1H-indol-3-yl)pyrimidin-2-yl)amino)-2-(3-(dimethylamino)pyrrolidin-1-yl)phenyl)acetamide] the figure was 155 nM; with `CN(C)[C@H]1CCN(c2ccc(Nc3ncc(Cl)c(-c4c[nH]c5c(F)cccc45)n3)cc2N)C1` [Compound S-414, (S)—N^1-(5-chloro-4-(7-fluoro-1H-indol-3-yl)pyrimidin-2-yl)-4-(3-(dimethylamino)pyrrolidin-1-yl)benzene-1,3-diamine], 50.1 nM.
Same read-out and setting: then `CCN(C(=O)CN(C)C)c1ccc(Nc2ncc(Cl)c(-c3c[nH]c4ccccc34)n2)cc1NC(C)=O` [Compound 449, N-(2-acetamido-4-((5-chloro-4-(1H-indol-3-yl)pyrimidin-2-yl)amino)phenyl)-2-(dimethylamino)-N-ethylacetamide], with more than 1000 nM.
Still for that read-out and setting: then `CC(=O)Nc1cc(Nc2ncc(C(F)(F)F)c(-c3cn(C)c4c(F)cccc34)n2)ccc1OCCN(C)C` [Compound 352, N-(2-(2-(dimethylamino)ethoxy)-5-((4-(7-fluoro-1-methy-1H-indol-3-yl)-5-(trifluoromethyl)pyrimidin-2-yl)amino)phenyl)acetamide], with 42.1 nM; and `CC(=O)Nc1cc(Nc2nc(-c3c[nH]c4cccc(F)c34)c3cc[nH]c3n2)ccc1N(C)CCN(C)C` [Compound 216, N-(2-((2-(dimethylamino)ethyl)(methyl)amino)-5-((4-(4-fluoro-1H-indol-3-yl)-7H-pyrrolo[2,3-d]pyrimidin-2-yl)amino)phenyl)acetamide], with 49.7 nM; and `CC(=O)Nc1cc(Nc2ncc(C(F)(F)F)c(-c3cn(C)c4ccc(C)cc34)n2)ccc1N(C)CCN(C)C` [Compound 356, N-(5-((4-(1,5-dimethyl-1H-indol-3-yl)-5-(trifluoromethyl)pyrimidin-2-yl)amino)-2-((2-(dimethylamino)ethyl)(methyl)amino)phenyl)acetamide], with 327 nM.
Regarding `CCN(CCN(C)C)c1ccc(Nc2nc3c(c(-c4cn(C)c5ccccc45)n2)CCO3)cc1NC(C)=O` [Compound 258c, N-(2-((2-(dimethylamino)ethyl)(ethyl)amino)-5-((4-(1-methyl-1H-indol-3-yl)-5,6-dihydrofuro[2,3-d]pyrimidin-2-yl)amino)phenyl)acetamide], the IC50 was more than 1000 nM.
The same measure, in the same setting: with `CC(=O)Nc1cc(Nc2ncc(F)c(-c3cn(C)c4cc(F)ccc34)n2)ccc1N(C)CCN(C)C` [Compound 267, N-(2-((2-(dimethylamino)ethyl)(methyl)amino)-5-((5-fluoro-4-(6-fluoro-1-methyl-1H-indol-3-yl)pyrimidin-2-yl)amino)phenyl)acetamide] the figure was 303 nM.
